Usually Ki stands for the equilibrium dissociation constant of an inhibitor or competing ligand from its target. Read a low Ki as a stronger hold on the target. In general, IC50 refers to the concentration at which inhibition is half-maximal.

Several values for one entry are separate records, joined by “and”; a condition that tells them apart may be missing. Equal values may be shown once. Read-outs that look alike come from different tables or passages of the source. Non-standard residues stand in square brackets, D forms with d. Residues, ends and D or L forms follow the SMILES beside them. *: point of attachment. NH(3,5-(CF3)2-benzyl) = FC(F)(F)c1cc(CN*)cc(C(F)(F)F)c1

The values below come from patent publication US11141452B2, “Bifunctional compounds for relief of pain comprising an opioid receptor agonist moiety and a NK1 receptor antagonist moiety and methods for treating pain” (THE ARIZONA BOARD OF REGENTS ON BEHALF OF THE UNIVERSITY OF …, priority 2014, dated 2021).

Experiment [1] has as its target MOR. Briefly: Radioligand binding assay at μ opioid receptor. Conditions: for Log[IC50±] (μ): log IC50 ± error; for Ki^μ/Ki^δ: ratio of binding affinities MOR/DOR. As for the experimental part:
(§1) Binding affinities of these ligands were measured on radioligand binding assays. […] ([43]).

Experiment [2] concerns the target DOR (Homo sapiens, UniProt P41143). The experiment in a line: Radioligand binding assay at δ opioid receptor. The following applies: for Ki: Ki^δ (nM). As to the method: as §1
The test system of experiment [3] is MOR. The experiment in a line: Guinea pig isolated ileum (GPI) functional assay. The class given is cell-based. The following applies: for IC50: agonist activity, electrically stimulated tissue, read-out: GPI (MOR) IC50.
Experiment [4] concerns the target T1, DOR (Mus musculus, UniProt P32300).
T1 construct: Male ICR mice under CO2 anesthesia were sacrificed by cervical dislocation and the vasa differentia removed; from tissue; host or cells: mouse vas deferens (ICR mice)
Briefly: Mouse isolated vas deferens (MVD) functional assay. The class given is cell-based.

In a further experiment the target is T2, NK1R (Cavia porcellus, UniProt P30547).
T2 construct: The longitudinal muscle with myenteric plexus (LMMP) was carefully separated from the circular muscle; from tissue; host or cells: guinea pig ileum longitudinal muscle with myenteric plexus
T2 sequence (P30547 whole entry): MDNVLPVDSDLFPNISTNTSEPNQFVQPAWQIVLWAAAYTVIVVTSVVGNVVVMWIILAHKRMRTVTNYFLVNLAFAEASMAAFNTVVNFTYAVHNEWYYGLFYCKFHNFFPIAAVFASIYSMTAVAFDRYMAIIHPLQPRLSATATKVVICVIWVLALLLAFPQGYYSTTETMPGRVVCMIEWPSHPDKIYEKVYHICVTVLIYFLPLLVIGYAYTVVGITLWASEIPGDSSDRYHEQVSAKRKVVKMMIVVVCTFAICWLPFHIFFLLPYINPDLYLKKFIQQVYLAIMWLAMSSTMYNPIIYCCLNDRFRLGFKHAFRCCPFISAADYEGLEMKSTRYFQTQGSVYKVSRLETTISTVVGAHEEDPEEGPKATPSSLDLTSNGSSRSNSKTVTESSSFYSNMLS
Briefly: GPI/LMMP functional assay at NK1R (agonist and antagonist testing). The class given is cell-based, guinea pig. Conditions: for GPI/LMMP (NK1R) Agonist: agonist activity at the concentration in the cell.

The next experiment has as its target T3, hNK1 (Homo sapiens, UniProt P25103).
T3 construct: expressed in transfected cells; host or cells: CHO
The experiment in a line: hNK1/CHO cell membrane radioligand binding assay ([3H]SP). Conditions: for Ki^hNK1/Ki^rNK1: ratio human/rat NK1.

[5] abbreviates: MVD (DOR) IC50 (nM), agonist activity, electrically stimulated tissue.
The mark [6] stands for this setting: GPI/LMMP (NK1R) Ke (nM) ± S.E.M., antagonist activity.
The mark [7] stands for this setting: antagonist activity, read-out: GPI/LMMP (NK1R) Ke (nM) ± S.E.M.

T3 sequence (P25103 whole entry): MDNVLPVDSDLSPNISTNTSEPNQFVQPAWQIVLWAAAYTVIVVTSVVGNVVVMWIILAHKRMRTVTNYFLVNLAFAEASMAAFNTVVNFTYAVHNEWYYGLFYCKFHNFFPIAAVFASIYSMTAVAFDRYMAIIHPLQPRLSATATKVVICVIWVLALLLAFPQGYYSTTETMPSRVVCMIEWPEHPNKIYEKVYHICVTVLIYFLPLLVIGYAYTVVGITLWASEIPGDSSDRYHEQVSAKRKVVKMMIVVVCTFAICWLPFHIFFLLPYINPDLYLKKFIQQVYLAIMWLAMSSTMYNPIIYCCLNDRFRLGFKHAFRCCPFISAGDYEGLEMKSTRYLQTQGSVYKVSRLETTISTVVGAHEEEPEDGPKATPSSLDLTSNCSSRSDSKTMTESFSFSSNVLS
T1 sequence (P32300 whole entry): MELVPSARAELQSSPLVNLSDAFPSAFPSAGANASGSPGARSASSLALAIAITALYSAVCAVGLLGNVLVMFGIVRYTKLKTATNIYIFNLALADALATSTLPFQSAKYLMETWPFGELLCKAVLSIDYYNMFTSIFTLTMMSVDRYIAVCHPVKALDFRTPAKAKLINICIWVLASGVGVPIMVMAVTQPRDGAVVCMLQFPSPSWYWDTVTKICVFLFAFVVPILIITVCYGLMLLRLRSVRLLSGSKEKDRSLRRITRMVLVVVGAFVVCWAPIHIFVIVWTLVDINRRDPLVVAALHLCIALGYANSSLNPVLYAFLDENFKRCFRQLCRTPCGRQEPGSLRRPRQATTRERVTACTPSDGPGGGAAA
Sequence of DOR (Homo sapiens, UniProt P41143) (P41143 whole entry): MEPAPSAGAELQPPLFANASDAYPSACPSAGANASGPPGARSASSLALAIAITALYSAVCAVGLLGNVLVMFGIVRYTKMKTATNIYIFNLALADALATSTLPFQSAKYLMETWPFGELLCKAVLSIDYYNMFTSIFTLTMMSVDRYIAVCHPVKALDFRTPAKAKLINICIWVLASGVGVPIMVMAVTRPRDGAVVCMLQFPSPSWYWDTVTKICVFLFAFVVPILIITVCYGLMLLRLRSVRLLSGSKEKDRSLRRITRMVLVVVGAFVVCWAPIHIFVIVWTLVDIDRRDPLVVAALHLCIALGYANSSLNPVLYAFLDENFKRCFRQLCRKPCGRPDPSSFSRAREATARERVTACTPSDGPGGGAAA

For `CCCC[C@H](NC(=O)[C@H](Cc1ccccc1)N(C)C(=O)CNC(=O)[C@@H](C)NC(=O)[C@@H](N)Cc1ccc(O)cc1)C(=O)N1CCC[C@H]1C(=O)N[C@@H](CC(C)C)C(=O)N[C@@H](Cc1c[nH]c2ccccc12)C(=O)NCc1cc(C(F)(F)F)cc(C(F)(F)F)c1` [AKG112, H-Tyr-D-Ala-Gly-NMePhe-Nle-Pro-Leu-Trp-NH-Bn(3′,5′-(CF3)2)], at MOR [1], the Ki came to 13 nM. For the same compound, the “Log[IC50±] (μ)” value at MOR [1] is listed as −7.51 ± 0.04. The figures for the IC50 at DOR [2], in the experiment on MOR [3] and on DOR [4] (setting [5]) were 50.1 nM, 718 nM and 11.6 ± 2.55 nM, respectively. Moreover, the Kb on NK1R (setting [6]) amounted to 5.4 ± 2.1 nM.
With `CC(C)C[C@H](NC(=O)[C@@H]1CCCN1C(=O)[C@H](Cc1ccc(O)cc1)NC(=O)CNC(=O)[C@H](Cc1ccccc1)NC(=O)[C@@H](C)NC(=O)[C@@H](N)Cc1ccc(O)cc1)C(=O)N[C@@H](Cc1c[nH]c2ccccc12)C(=O)NCc1cc(C(F)(F)F)cc(C(F)(F)F)c1` [AKG114] (H-Y[dA]FGYPLW-{NH(3,5-(CF3)2-benzyl)}), on MOR [1], affinity was put at a Ki of 4 nM and the “Log[IC50±] (μ)” value is reported as −8.02 ± 0.04. Also, the IC50 with MOR [3] was 110 nM and 112 nM. The “higher agonist activity at DOR compared to MOR (functional assays)” value on DOR [4] amounted to 4 times. In addition, the Kb on NK1R (setting [7]) is reported as 15 nM.
As to `Cc1cc(O)cc(C)c1C[C@H](N)C(=O)N[C@H](C)C(=O)NCC(=O)N[C@@H](Cc1ccccc1)C(=O)N1CCC[C@H]1C(=O)N[C@@H](CC(C)C)C(=O)N[C@@H](Cc1c[nH]c2ccccc12)C(=O)NCc1cc(C(F)(F)F)cc(C(F)(F)F)c1` [AKG116, H-Dmt-D-Ala-Gly-Phe-Pro-Leu-Trp-NH-Bn(3′,5′-(CF3)2)], the Ki on MOR [1] came to 3 nM; on DOR [2] it was 1 nM; on hNK1 (Ki^hNK1 (nM), hNK1/CHO membranes, [3H]SP), 1.4 nM. On MOR [1], the “Log[IC50±] (μ)” value was −8.63 ± 0.04. Besides, the “Ki^μ/Ki^δ” value at MOR [1] is 3/1. Besides, the results for the IC50 at DOR [2], with MOR [3] and at DOR [4] (setting [5]) were 2.19 nM, 80.8 nM and 3.1 nM, respectively. Further, the “Ki^hNK1/Ki^rNK1” value at hNK1 was 1/19. Besides, the “GPI/MVD IC50 ratio” value in the experiment on MOR [3] is listed as 26/1. Besides, the “higher agonist activity at DOR compared to MOR (functional assays)” value on DOR [4] is recorded as 26 times. At NK1R, the “GPI/LMMP (NK1R) Agonist” value is listed as “None at 100 nM”. In addition, the Kb on NK1R (setting [7]) was 25 nM and 24.9 nM.
On to `CC(C)C[C@H](NC(=O)[C@@H]1CCCN1C(=O)[C@H](Cc1ccccc1)N(C)C(=O)CNC(=O)[C@@H](C)NC(=O)[C@@H](N)Cc1ccc(O)cc1)C(=O)N[C@@H](Cc1c[nH]c2ccccc12)C(=O)NCc1cc(C(F)(F)F)cc(C(F)(F)F)c1` [AKG117, H-Tyr-D-Ala-Gly-NMePhe-Pro-Leu-Trp-NH-Bn(3′,5′-(CF3)2)], for which the “Log[IC50±] (μ)” value on MOR [1] is −7.05 ± 0.04. Also, the IC50 was 230 nM and 232 nM in the experiment on MOR [3]; 100 nM at DOR [4] (setting [5]).
For the compound `CC(C)C[C@H](NC(=O)[C@@H]1CCCN1C(=O)CCNC(=O)[C@H](Cc1ccccc1)N(C)C(=O)CNC(=O)[C@@H](C)NC(=O)[C@@H](N)Cc1ccc(O)cc1)C(=O)N[C@@H](Cc1c[nH]c2ccccc12)C(=O)NCc1cc(C(F)(F)F)cc(C(F)(F)F)c1` [AKG119, H-Tyr-D-Ala-Gly-NMePhe-β-Ala-Pro-Leu-Trp-NH-Bn(3′,5′-(CF3)2)], at MOR [1], the Ki amounted to 8 nM and the “Log[IC50±] (μ)” value is listed as −7.76 ± 0.11. Further, the “Ki^hNK1/Ki^rNK1” value on hNK1 is recorded as 1/32. In the experiment with MOR [3], the “GPI/MVD IC50 ratio” value is recorded as 10/1 and the IC50 was 365 ± 186 nM. For the same compound, at NK1R, the “GPI/LMMP (NK1R) Agonist” value is “None at 100 nM”.
With `CC(C)C[C@H](NC(=O)[C@@H]1CCCN1C(=O)CCCNC(=O)[C@H](Cc1ccccc1)N(C)C(=O)CNC(=O)[C@@H](C)NC(=O)[C@@H](N)Cc1ccc(O)cc1)C(=O)N[C@@H](Cc1c[nH]c2ccccc12)C(=O)NCc1cc(C(F)(F)F)cc(C(F)(F)F)c1` [AKG123, H-Tyr-D-Ala-Gly-NMePhe-γ-Abu-Pro-Leu-Trp-NH-Bn(3′,5′-(CF3)2)], the inhibition constant (Ki) at MOR [1] is 9 nM; at DOR [2], 3 nM. Further, the “Log[IC50±] (μ)” value at MOR [1] is reported as −7.73 ± 0.07. The figures for the IC50 on DOR [2], in the experiment with MOR [3] and at DOR [4] were 5.89 nM, 424 ± 148 nM and 50.1 ± 17.4 nM, respectively. In addition, on NK1R, the Kb worked out at 2.3 ± 0.7 nM.
On to `CC(C)C[C@H](NC(=O)[C@@H]1CCCN1C(=O)CCCCCNC(=O)[C@H](Cc1ccccc1)N(C)C(=O)CNC(=O)[C@@H](C)NC(=O)[C@@H](N)Cc1ccc(O)cc1)C(=O)N[C@@H](Cc1c[nH]c2ccccc12)C(=O)NCc1cc(C(F)(F)F)cc(C(F)(F)F)c1` [AKG124, H-Tyr-D-Ala-Gly-NMePhe-[4]6-Ahx-Pro-Leu-Trp-NH-Bn(3′,5′-(CF3)2)], for which, on MOR [1], the affinity, expressed as Ki, was 7 nM and the “Log[IC50±] (μ)” value is recorded as −7.80 ± 0.09. This compound also had an IC50 at DOR [2] of 72.4 nM. In addition, the “Ki^hNK1/Ki^rNK1” value at hNK1 is 1/36. In addition, in the experiment with MOR [3], the “GPI/MVD IC50 ratio” value is on record as 7/1 and the IC50 is 255 ± 71.2 nM. Besides, the IC50 at DOR [4] was found to be 36.8 ± 13.6 nM. Also, at NK1R, the Kb is 11.2 ± 3.1 nM and the “GPI/LMMP (NK1R) Agonist” value is on record as “None at 100 nM”.
In the case of `Cc1cc(O)cc(C)c1C[C@H](N)C(=O)N[C@H](C)C(=O)NCC(=O)N(C)[C@@H](Cc1ccc(F)cc1)C(=O)N1CCC[C@H]1C(=O)N[C@@H](CC(C)C)C(=O)N[C@@H](Cc1c[nH]c2ccccc12)C(=O)NCc1cc(C(F)(F)F)cc(C(F)(F)F)c1` [AKG128, H-Dmt-D-Ala-Gly-NMePhe(4-F)-Pro-Leu-Trp-NH-Bn(3′,5′-(CF3)2)], at MOR [1], the Ki turned out to be 1 nM, the “Log[IC50±] (μ)” value is −8.55 ± 0.18 and the “Ki^μ/Ki^δ” value is 1/4. In addition, the “Ki^hNK1/Ki^rNK1” value at hNK1 is 1/13. Further, in the experiment with MOR [3], the IC50 came out at 76.5 nM. At DOR [4], the “higher agonist activity at DOR compared to MOR (functional assays)” value is around 7 times. The same compound registered an IC50 at DOR [4] (setting [5]) of 11.5 ± 5.6 nM. The compound further came in with a Kb at NK1R (setting [6]) of 11.2 ± 2.7 nM. Further, on NK1R, the “GPI/LMMP (NK1R) Agonist” value was “None at 30 nM”.
For `CC(C)C[C@H](NC(=O)[C@@H]1CCCN1C(=O)Cc1ccc(CNC(=O)[C@H](Cc2ccccc2)N(C)C(=O)CNC(=O)[C@@H](C)NC(=O)[C@@H](N)Cc2ccc(O)cc2)cc1)C(=O)N[C@@H](Cc1c[nH]c2ccccc12)C(=O)NCc1cc(C(F)(F)F)cc(C(F)(F)F)c1` [AKG178, H-Tyr-D-Ala-Gly-NMePhe-4-Ampa-Pro-Leu-Trp-NH-Bn(3′,5′-(CF3)2)], the “Ki^hNK1/Ki^rNK1” value at hNK1 is given as 1/21. Moreover, in the experiment with MOR [3], the “GPI/MVD IC50 ratio” value was 15/1; the IC50 was 650 nM and 654 nM. Further, at DOR [4], the “higher agonist activity at DOR compared to MOR (functional assays)” value amounted to 15 times. At NK1R, the “GPI/LMMP (NK1R) Agonist” value is “None at 300 nM”. Also, on NK1R (setting [7]), the Kb is given as 76 nM.
As to `Cc1cc(O)cc(C)c1C[C@H](N)C(=O)N[C@H](C)C(=O)NCC(=O)N[C@@H](Cc1ccc(Cl)cc1)C(=O)N1CCC[C@H]1C(=O)N[C@@H](CC(C)C)C(=O)N[C@@H](Cc1c[nH]c2ccccc12)C(=O)NCc1cc(C(F)(F)F)cc(C(F)(F)F)c1` [AKG191, H-Dmt-D-Ala-Gly-Phe(4-Cl)-Pro-Leu-Trp-NH-Bn(3′,5′-(CF3)2)], at MOR [1], the affinity, expressed as Ki, was 2 nM and the “Log[IC50±] (μ)” value was −8.33 ± 0.09. The “Ki^hNK1/Ki^rNK1” value at hNK1 is on record as 1/9. In the experiment with MOR [3], the IC50 worked out at 166 ± 71.6 nM. In addition, the IC50 at DOR [4] (setting [5]) worked out at 25.4 ± 7.7 nM. The “GPI/LMMP (NK1R) Agonist” value at NK1R is given as “None at 300 nM”.
